Measurements reported in publication PMC8490629, “Metabolites of Procyanidins From Litchi Chinensis Pericarp With Xanthine Oxidase Inhibitory Effect and Antioxidant Activity” (Frontiers in Nutrition, 2021).
Marks after values point to notes of the source that are not given here.

System: not listed separately
Experiment: DPPH radical scavenging activity
Conditions: not given
Experimental: 1, 1-Diphenyl-2-picrylhydrazyl radical scavenging activity was determined referring to the method described previously ([41]). Litchi pericarp and phenolic acids were dissolved in 1.0 ml of deionized water at various concentrations ranging from 2.0 to 100.0 μg/ml. Then, the solution of the sample was mixed with 1.0 ml of freshly prepared 0.2 mM DPPH ethanolic solution. Control in the experiment was prepared by the same reagent without the sample. All the tubes were incubated at 37°C for 30 min in the dark, and the final solution was recorded at 517 nm. The DPPH radical scavenging activity was calculated using the following equation:
DPPH radical scavenging rate (%) =(Acontrol-Asample)/Acontrol × 100

**Q.** For O=C(O)Cc1cccc(O)c1 [3-Hydroxyphenylacetic acid, 3-hydroxyphenylacetic acid], which “IC50 (μg/ml) DPPH·” value is on record?
**A.** 82.60 ± 1.95^h μg/ml

**Q.** Which “IC50 (μg/ml) DPPH·” value does the source give for O=C(O)CCc1cccc(O)c1 [3-Hydroxyphenylpropionic acid, 3-hydroxyphenylpropionic acid] here?
**A.** 77.83 ± 0.93^g μg/ml

**Q.** With O=C(O)CCc1ccc(O)cc1 [4-Hydroxyphenylpropionic acid, 4-hydroxyphenylpropionic acid] as the compound, how does the “IC50 (μg/ml) DPPH·” value read?
**A.** 74.63 ± 1.40^f μg/ml

**Q.** Which “IC50 (μg/ml) DPPH·” value does the source give for Oc1cc(O)c2c(c1)O[C@H](c1ccc(O)c(O)c1)[C@H](O)C2 [(-)-Epicatechin, (-)-epicatechin] here?
**A.** 5.43 ± 0.10^a μg/ml

**Q.** For Oc1cc(O)c2c(c1)OC1(c3ccc(O)c(O)c3)Oc3cc(O)c4c(c3C2C1O)OC(c1ccc(O)c(O)c1)C(O)C4 (stereo not drawn) [A-type dimer], which “IC50 (μg/ml) DPPH·” value is on record?
**A.** 5.86 ± 0.14^a μg/ml

**Q.** With Oc1cc(O)c2c(c1)OC1(c3ccc(O)c(O)c3)Oc3cc(O)c4c(c3C2C1O)OC(c1ccc(O)c(O)c1)C(O)C4c1c(O)cc(O)c2c1OC(c1ccc(O)c(O)c1)C(O)C2 (stereo not drawn) [A-type trimer] as the compound, how does the “IC50 (μg/ml) DPPH·” value read?
**A.** 8.00 ± 0.18^b μg/ml

Same assay, conditions: listed as 3-hydroxyphenylacetic acid

**Q.** With O=C(O)Cc1cccc(O)c1 [3-Hydroxyphenylacetic acid, 3-hydroxyphenylacetic acid] as the compound, how does the “IC50 (μg/ml) DPPH·” value read?
**A.** > 50 µg/mL

Same assay, conditions: listed as 3-hydroxyphenylpropionic acid

**Q.** Which “IC50 (μg/ml) DPPH·” value does the source give for O=C(O)CCc1cccc(O)c1 [3-Hydroxyphenylpropionic acid, 3-hydroxyphenylpropionic acid] here?
**A.** > 50 µg/mL

Same assay, conditions: listed as 4-hydroxyphenylpropionic acid

**Q.** Which “IC50 (μg/ml) DPPH·” value does the source give for O=C(O)CCc1ccc(O)cc1 [4-Hydroxyphenylpropionic acid, 4-hydroxyphenylpropionic acid] here?
**A.** > 50 µg/mL

System: not listed separately
Experiment: Hydroxyl radical scavenging activity
Conditions: not given
Experimental: Hydroxyl radical scavenging activity was assessed according to the method of Dong et al. ([42]) with modifications. The reagents and samples were added strictly obeying following order: 0.25 ml 1.5 mM phenanthroline ethanolic solution, 0.5 ml phosphoric acid buffer (pH = 7.4), 0.25 ml 1.5 mM freshly prepared ferrous sulfate solution, 0.5 ml sample (0–0.5 mg), and 0.25 ml 0.01% H2O2. The injured tubes in the experiment were prepared by the same reagents except samples, while control was carried out by adding sample without H2O2. The mixtures were shaken and incubated at 37°C for 1 h, and then measured at 536 nm. The hydroxyl radical scavenging activity was calculated using the following equation:
hydroxyl radical scavenging rate (%) =Asample-Ainjured/Acontrol-Ainjured ×100

**Q.** For O=C(O)Cc1cccc(O)c1 [3-Hydroxyphenylacetic acid, 3-hydroxyphenylacetic acid], which “IC50 (μg/ml) ·OH” value is on record?
**A.** 803.47 ± 6.38^g μg/ml

**Q.** With O=C(O)CCc1cccc(O)c1 [3-Hydroxyphenylpropionic acid, 3-hydroxyphenylpropionic acid] as the compound, how does the “IC50 (μg/ml) ·OH” value read?
**A.** 841.57 ± 4.45^h μg/ml

**Q.** For O=C(O)CCc1ccc(O)cc1 [4-Hydroxyphenylpropionic acid, 4-hydroxyphenylpropionic acid], which “IC50 (μg/ml) ·OH” value is on record?
**A.** 813.87 ± 5.48^g μg/ml

**Q.** For Oc1cc(O)c2c(c1)O[C@H](c1ccc(O)c(O)c1)[C@H](O)C2 [(-)-Epicatechin, (-)-epicatechin], which “IC50 (μg/ml) ·OH” value is on record?
**A.** 121.27 ± 1.80^a μg/ml

**Q.** With Oc1cc(O)c2c(c1)OC1(c3ccc(O)c(O)c3)Oc3cc(O)c4c(c3C2C1O)OC(c1ccc(O)c(O)c1)C(O)C4 (stereo not drawn) [A-type dimer] as the compound, how does the “IC50 (μg/ml) ·OH” value read?
**A.** 126.57 ± 2.58^a μg/ml

**Q.** For Oc1cc(O)c2c(c1)OC1(c3ccc(O)c(O)c3)Oc3cc(O)c4c(c3C2C1O)OC(c1ccc(O)c(O)c1)C(O)C4c1c(O)cc(O)c2c1OC(c1ccc(O)c(O)c1)C(O)C2 (stereo not drawn) [A-type trimer], which “IC50 (μg/ml) ·OH” value is on record?
**A.** 122.73 ± 2.35^a μg/ml

System: not listed separately
Experiment: Urinary excretion of procyanidins and metabolites in rats after oral LPPC (HPLC / LC-MS)
Format: in vivo, rat
Conditions: rat urine 0-24 h after oral LPPC 300 mg/kg, after glucuronidase/sulfatase deconjugation
Experimental: Male Sprague-Dawley rats weighing 220 ± 20 g were randomly divided into two groups (n = 20) with 10 rats in each group. Prior to administration, animals were deprived of food for 12 h, but had access to deionized water. The LPPC was dissolved in physiological saline and administered orally to rats at a dose of 300 mg/kg body weight. In addition, the physiological saline was administered orally to the rats in another group as control. All the rats were placed in metabolic cages, each rat per cage (Jiayuan Technology Co. Ltd., Beijing, China). The samples of urine excreted from 0 to 24 h postadministration were collected from the bottom of the metabolic cage under chilled conditions using an ice bath and stored at −80°C before analysis, referring to the method described previously ([38]).
The sample of urine was centrifuged at 4,000 r/min for 10 min at 4°C, and the supernatant was collected. The supernatant was acidified to pH = 5.5 with 0.6 mol/l acetic acid and incubated at 37°C for 60 min in the presence of 10 KU β-glucuronidase with the activity of sulfatase. After further acidification to pH = 2 with 6 mol/l HCl, the samples were directly extracted by ethyl acetate × 3. The resulting supernatant was dried under vacuum by rotatory evaporation at 40°C until the ethyl acetate was completely removed and dissolved in 1 ml of 50% methanol. Then, the solution was purified by the solid phase extraction, and the residue was redissolved in methanol and analyzed by LC-MS as described by Li et al. with modifications ([39]).
Selected samples were analyzed on an Agilent 1100 LC-ESI-MS system (Agilent Technologies Co. Ltd., Foster City, California, USA) to identify metabolites in urine. A VP-ODS column (150 × 4.6 mm ID, 5 μm particle size, Shimadzu Co., Kyoto, Japan) was used and 20 μl solution of the sample was injected. The mobile phases consisted of 0.4% (v/v) aqueous acetic acid as A and acetonitrile as B with the following linear gradient: from 5 to 35% B in the first 40 min, from 35 to 50% B in the next 5 min, from 50 to 80% B in the next 5 min, and from 80 to 5% B in the next 5 min, and re-equilibrated with 5% B for 5 min before next injection. The flow rate was 0.2 ml/min and the absorbance of the eluate was monitored at 280 nm. Mass spectra were collected using an electrospray ionization (ESI) ion source in the negative mode under the following conditions: orifice voltage, −30 V; nebulizing pressure, 30 psi; heat capillary temperature, 275°C; and mass range, m/z 100-1,200.

**Q.** Which “Urinary excretion, phenolic acids” value does the source give for O=C(O)Cc1cccc(O)c1 [3-Hydroxyphenylacetic acid, 3-hydroxyphenylacetic acid] here?
**A.** 46.98 ± 3.76 nmol

**Q.** Which “Urinary excretion, phenolic acids” value does the source give for O=C(O)CCc1cccc(O)c1 [3-Hydroxyphenylpropionic acid, 3-hydroxyphenylpropionic acid] here?
**A.** 12.87 ± 3.06 nmol

**Q.** Which “Urinary excretion, phenolic acids” value does the source give for O=C(O)CCc1ccc(O)cc1 [4-Hydroxyphenylpropionic acid, 4-hydroxyphenylpropionic acid] here?
**A.** 60.54 ± 3.18 nmol

**Q.** Which “Urinary excretion, procyanidin (% to oral dose)” value does the source give for Oc1cc(O)c2c(c1)O[C@H](c1ccc(O)c(O)c1)[C@H](O)C2 [(-)-Epicatechin, (-)-epicatechin] here?
**A.** 0.21 ± 0.04 % to oral dose

**Q.** With Oc1cc(O)c2c(c1)OC1(c3ccc(O)c(O)c3)Oc3cc(O)c4c(c3C2C1O)OC(c1ccc(O)c(O)c1)C(O)C4 (stereo not drawn) [A-type dimer] as the compound, how does the “Urinary excretion, procyanidin (% to oral dose)” value read?
**A.** 0.54 ± 0.09 % to oral dose

**Q.** Which “Urinary excretion, procyanidin (% to oral dose)” value does the source give for Oc1cc(O)c2c(c1)OC1(c3ccc(O)c(O)c3)Oc3cc(O)c4c(c3C2C1O)OC(c1ccc(O)c(O)c1)C(O)C4c1c(O)cc(O)c2c1OC(c1ccc(O)c(O)c1)C(O)C2 (stereo not drawn) [A-type trimer] here?
**A.** 0.43 ± 0.02 % to oral dose

Same assay, conditions: rat urine, oral LPPC 300 mg/kg bw

**Q.** For Oc1cc(O)c2c(c1)O[C@H](c1ccc(O)c(O)c1)[C@H](O)C2 [(-)-Epicatechin, (-)-epicatechin], which “Urinary excretion as share of the oral intake” value (from here on “Urinary excretion as share”) is on record?
**A.** 0.21 ± 0.04 % (mol/mol)

**Q.** With Oc1cc(O)c2c(c1)OC1(c3ccc(O)c(O)c3)Oc3cc(O)c4c(c3C2C1O)OC(c1ccc(O)c(O)c1)C(O)C4 (stereo not drawn) [A-type dimer] as the compound, how does the “Urinary excretion as share” value read?
**A.** 0.54 ± 0.09 % (mol/mol)

**Q.** For Oc1cc(O)c2c(c1)OC1(c3ccc(O)c(O)c3)Oc3cc(O)c4c(c3C2C1O)OC(c1ccc(O)c(O)c1)C(O)C4c1c(O)cc(O)c2c1OC(c1ccc(O)c(O)c1)C(O)C2 (stereo not drawn) [A-type trimer], which “Urinary excretion as share” value is on record?
**A.** 0.43 ± 0.02 % (mol/mol)

Target: T1, xanthine oxidase (Bos taurus, UniProt P80457)
T1 construct: purchased Sigma (St. Louis, MO, USA)
Experiment: Xanthine oxidase inhibition assay (uric acid production from xanthine, 295 nm)
Format: biochemical
Conditions: read-out: IC50 (μg/ml) xanthine oxidase (converted)

T1 sequence (P80457 2-1332 limits assumed): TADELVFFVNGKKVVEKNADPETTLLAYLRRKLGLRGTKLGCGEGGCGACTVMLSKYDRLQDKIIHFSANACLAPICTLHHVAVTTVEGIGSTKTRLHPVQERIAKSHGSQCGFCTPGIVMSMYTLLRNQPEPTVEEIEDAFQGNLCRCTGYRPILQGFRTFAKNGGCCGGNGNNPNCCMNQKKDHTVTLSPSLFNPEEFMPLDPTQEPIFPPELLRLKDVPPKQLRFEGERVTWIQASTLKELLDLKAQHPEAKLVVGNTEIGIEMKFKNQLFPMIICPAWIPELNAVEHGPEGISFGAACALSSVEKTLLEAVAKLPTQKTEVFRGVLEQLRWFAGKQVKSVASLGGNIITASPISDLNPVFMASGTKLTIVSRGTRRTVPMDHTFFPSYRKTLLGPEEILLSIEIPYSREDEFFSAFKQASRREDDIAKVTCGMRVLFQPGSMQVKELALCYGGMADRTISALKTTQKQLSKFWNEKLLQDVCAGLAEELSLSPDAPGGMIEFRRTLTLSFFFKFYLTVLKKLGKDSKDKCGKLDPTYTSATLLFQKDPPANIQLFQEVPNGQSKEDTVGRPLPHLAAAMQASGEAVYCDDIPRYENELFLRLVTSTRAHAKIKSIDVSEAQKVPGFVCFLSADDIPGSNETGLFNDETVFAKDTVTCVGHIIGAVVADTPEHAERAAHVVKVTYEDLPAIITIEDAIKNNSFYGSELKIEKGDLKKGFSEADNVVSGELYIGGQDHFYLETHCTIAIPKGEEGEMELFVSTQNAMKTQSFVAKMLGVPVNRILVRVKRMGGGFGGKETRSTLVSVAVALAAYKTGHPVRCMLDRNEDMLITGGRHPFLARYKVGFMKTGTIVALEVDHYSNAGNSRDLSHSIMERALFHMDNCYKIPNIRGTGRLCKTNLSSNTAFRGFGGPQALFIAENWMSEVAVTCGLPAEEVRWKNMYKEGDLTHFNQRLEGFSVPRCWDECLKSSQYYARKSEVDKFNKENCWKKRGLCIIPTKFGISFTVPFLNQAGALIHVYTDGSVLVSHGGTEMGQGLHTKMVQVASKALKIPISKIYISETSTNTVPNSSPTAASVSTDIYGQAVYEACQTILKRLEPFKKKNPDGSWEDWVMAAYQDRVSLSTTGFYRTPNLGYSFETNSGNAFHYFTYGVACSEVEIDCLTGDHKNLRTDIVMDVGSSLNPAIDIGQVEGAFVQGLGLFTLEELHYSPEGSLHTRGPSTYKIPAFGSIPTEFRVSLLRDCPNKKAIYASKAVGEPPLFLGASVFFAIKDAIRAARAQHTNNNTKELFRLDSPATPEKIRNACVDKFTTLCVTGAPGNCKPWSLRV

**Q.** With O=C(O)Cc1cccc(O)c1 [3-Hydroxyphenylacetic acid, 3-hydroxyphenylacetic acid] as the compound, how does the IC50 read?
**A.** > 1310 µM

**Q.** For O=C(O)CCc1cccc(O)c1 [3-Hydroxyphenylpropionic acid, 3-hydroxyphenylpropionic acid], which IC50 is on record?
**A.** > 1200 µM

**Q.** For O=C(O)CCc1ccc(O)cc1 [4-Hydroxyphenylpropionic acid, 4-hydroxyphenylpropionic acid], which IC50 is on record?
**A.** > 1200 µM

**Q.** Which IC50 does the source give for Oc1cc(O)c2c(c1)O[C@H](c1ccc(O)c(O)c1)[C@H](O)C2 [(-)-Epicatechin, (-)-epicatechin] here?
**A.** 201 µM

**Q.** Which IC50 does the source give for Oc1cc(O)c2c(c1)OC1(c3ccc(O)c(O)c3)Oc3cc(O)c4c(c3C2C1O)OC(c1ccc(O)c(O)c1)C(O)C4 (stereo not drawn) [A-type dimer] here?
**A.** 119 µM

**Q.** For Oc1cc(O)c2c(c1)OC1(c3ccc(O)c(O)c3)Oc3cc(O)c4c(c3C2C1O)OC(c1ccc(O)c(O)c1)C(O)C4c1c(O)cc(O)c2c1OC(c1ccc(O)c(O)c1)C(O)C2 (stereo not drawn) [A-type trimer], which IC50 is on record?
**A.** 86.6 µM

Same assay, conditions: xanthine oxidase, 200 μg/ml

**Q.** With Oc1cc(O)c2c(c1)O[C@H](c1ccc(O)c(O)c1)[C@H](O)C2 [(-)-Epicatechin, (-)-epicatechin] as the compound, how does the “Inhibition (%) at 200 μg/ml” value read?
**A.** 78.63 ± 1.72^b %

Same assay, conditions: xanthine oxidase, 200 μg/ml; listed as epicatechin

**Q.** Which “Inhibition (%) at 200 μg/ml” value does the source give for Oc1cc(O)c2c(c1)O[C@H](c1ccc(O)c(O)c1)[C@H](O)C2 [(-)-Epicatechin, (-)-epicatechin] here?
**A.** higher than 50%

Same assay, conditions: xanthine oxidase, 200 μg/ml; read-out: Inhibition (%) at 200 μg/ml

**Q.** For O=C(O)Cc1cccc(O)c1 [3-Hydroxyphenylacetic acid, 3-hydroxyphenylacetic acid], which inhibition at 200 µg/mL is on record?
**A.** 21.1 ± 1.78%

**Q.** Which inhibition at 200 µg/mL does the source give for O=C(O)CCc1cccc(O)c1 [3-Hydroxyphenylpropionic acid, 3-hydroxyphenylpropionic acid] here?
**A.** 27 ± 1.44%

**Q.** For O=C(O)CCc1ccc(O)cc1 [4-Hydroxyphenylpropionic acid, 4-hydroxyphenylpropionic acid], which inhibition at 200 µg/mL is on record?
**A.** 29.4 ± 0.75%

**Q.** Which inhibition at 200 µg/mL does the source give for Oc1cc(O)c2c(c1)OC1(c3ccc(O)c(O)c3)Oc3cc(O)c4c(c3C2C1O)OC(c1ccc(O)c(O)c1)C(O)C4c1c(O)cc(O)c2c1OC(c1ccc(O)c(O)c1)C(O)C2 (stereo not drawn) [A-type trimer] here?
**A.** > 50%
